From the NIST ThermoML archive (doi:10.1021/je050402s)

Experiment: xn = mol fraction of the nth substance listed
Details: 100.5 kPa, Liquid; for viscosity: Capillary tube (Ostwald / Ubbelohde) method

CCOC(=O)CC(C)=O [ethyl 3-oxobutanoate] + CCO
Details | mass density, 288.15 K [kg/m3] | mass density, 298.15 K [kg/m3] | mass density, 308.15 K [kg/m3] | mass density, 318.15 K [kg/m3] | viscosity, 288.15 K [mPa·s] | viscosity, 298.15 K [mPa·s] | viscosity, 308.15 K [mPa·s] | viscosity, 318.15 K [mPa·s]
x1 = 0.05 | 818.78 | 809.91 | 800.94 | 791.8 | 1.266 | 1.042 | 0.869 | 0.731
x1 = 0.1 | 841 | 831.89 | 822.68 | 813.32 | 1.204 | 1.001 | 0.841 | 0.713
x1 = 0.15 | 860.94 | 851.63 | 842.22 | 832.67 | 1.19 | 0.99 | 0.832 | 0.709
x1 = 0.2 | 878.93 | 869.45 | 859.89 | 850.17 | 1.194 | 0.994 | 0.837 | 0.712
x1 = 0.25 | 895.25 | 885.63 | 875.91 | 866.05 | 1.206 | 1.003 | 0.846 | 0.721
x1 = 0.3 | 910.15 | 900.41 | 890.57 | 880.6 | 1.226 | 1.019 | 0.86 | 0.735
x1 = 0.35 | 923.79 | 913.94 | 903.99 | 893.92 | 1.25 | 1.038 | 0.878 | 0.751
x1 = 0.4 | 936.31 | 926.37 | 916.34 | 906.18 | 1.28 | 1.061 | 0.898 | 0.768
x1 = 0.45 | 947.86 | 937.83 | 927.73 | 917.49 | 1.312 | 1.087 | 0.921 | 0.789
x1 = 0.5 | 958.56 | 948.47 | 938.29 | 927.99 | 1.349 | 1.117 | 0.947 | 0.812
x1 = 0.55 | 968.53 | 958.37 | 948.11 | 937.75 | 1.39 | 1.151 | 0.974 | 0.836
x1 = 0.6 | 977.79 | 967.55 | 957.24 | 946.84 | 1.435 | 1.189 | 1.004 | 0.861
x1 = 0.65 | 986.4 | 976.13 | 965.77 | 955.36 | 1.484 | 1.227 | 1.036 | 0.888
x1 = 0.7 | 994.51 | 984.17 | 973.79 | 963.33 | 1.536 | 1.27 | 1.073 | 0.917
x1 = 0.75 | 1002.07 | 991.71 | 981.29 | 970.82 | 1.591 | 1.316 | 1.112 | 0.948
x1 = 0.8 | 1009.18 | 998.79 | 988.36 | 977.88 | 1.65 | 1.366 | 1.154 | 0.983
x1 = 0.85 | 1015.85 | 1005.46 | 995.02 | 984.54 | 1.709 | 1.415 | 1.199 | 1.018
x1 = 0.9 | 1022.16 | 1011.74 | 1001.3 | 990.84 | 1.773 | 1.471 | 1.247 | 1.059
x1 = 0.95 | 1028.15 | 1017.72 | 1007.29 | 996.82 | 1.834 | 1.524 | 1.295 | 1.103
x1 = 1 | 1033.92 | 1023.45 | 1013 | 1002.54 | 1.902 | 1.581 | 1.344 | 1.144

COC(=O)c1ccccc1 [methyl benzoate] + CCO
Details | mass density, 288.15 K [kg/m3] | mass density, 298.15 K [kg/m3] | mass density, 308.15 K [kg/m3] | mass density, 318.15 K [kg/m3] | viscosity, 288.15 K [mPa·s] | viscosity, 298.15 K [mPa·s] | viscosity, 308.15 K [mPa·s] | viscosity, 318.15 K [mPa·s]
x1 = 0.05 | 825.66 | 816.86 | 807.97 | 798.9 | 1.324 | 1.092 | 0.911 | 0.766
x1 = 0.1 | 853.88 | 844.92 | 835.86 | 826.58 | 1.323 | 1.094 | 0.915 | 0.77
x1 = 0.15 | 879.1 | 869.96 | 860.69 | 851.28 | 1.338 | 1.107 | 0.924 | 0.782
x1 = 0.2 | 901.63 | 892.4 | 883.02 | 873.48 | 1.359 | 1.122 | 0.94 | 0.797
x1 = 0.25 | 922.04 | 912.73 | 903.27 | 893.66 | 1.383 | 1.144 | 0.958 | 0.814
x1 = 0.3 | 940.62 | 931.27 | 921.76 | 912.06 | 1.417 | 1.171 | 0.981 | 0.834
x1 = 0.35 | 957.58 | 948.19 | 938.63 | 928.88 | 1.455 | 1.199 | 1.006 | 0.855
x1 = 0.4 | 973.15 | 963.7 | 954.11 | 944.3 | 1.496 | 1.232 | 1.031 | 0.877
x1 = 0.45 | 987.48 | 978.01 | 968.36 | 958.52 | 1.541 | 1.266 | 1.061 | 0.902
x1 = 0.5 | 1000.69 | 991.23 | 981.53 | 971.68 | 1.589 | 1.303 | 1.091 | 0.928
x1 = 0.55 | 1012.94 | 1003.42 | 993.75 | 983.88 | 1.64 | 1.341 | 1.123 | 0.954
x1 = 0.6 | 1024.33 | 1014.81 | 1005.11 | 995.26 | 1.692 | 1.384 | 1.158 | 0.982
x1 = 0.65 | 1034.94 | 1025.44 | 1015.73 | 1005.87 | 1.746 | 1.429 | 1.193 | 1.014
x1 = 0.7 | 1044.83 | 1035.36 | 1025.64 | 1015.8 | 1.807 | 1.475 | 1.231 | 1.047
x1 = 0.75 | 1054.13 | 1044.67 | 1034.95 | 1025.13 | 1.87 | 1.526 | 1.275 | 1.083
x1 = 0.8 | 1062.88 | 1053.41 | 1043.73 | 1033.93 | 1.942 | 1.581 | 1.318 | 1.122
x1 = 0.85 | 1071.11 | 1061.7 | 1052.04 | 1042.24 | 2.03 | 1.645 | 1.369 | 1.166
x1 = 0.9 | 1078.93 | 1069.53 | 1059.87 | 1050.1 | 2.118 | 1.712 | 1.421 | 1.208
x1 = 0.95 | 1086.31 | 1076.94 | 1067.3 | 1057.55 | 2.207 | 1.784 | 1.48 | 1.255
x1 = 1 | 1093.23 | 1083.92 | 1074.34 | 1064.62 | 2.297 | 1.851 | 1.531 | 1.297
